# Assay results published in patent US20230285374A1, “THERAPEUTIC METHODS USING VADADUSTAT” (Akebia Therapeutics, Inc., priority 2019, published 2023).
# Tested on: anemic DD-CKD patients with prevalent dialysis and established ESA treatment
# Assay: Phase 3 Prevalent DD-CKD (Conversion) trial, vadadustat vs darbepoetin alfa
# Format: in vivo, human
# Settings: for Ferritin, mean / Hepcidin, mean / TSAT, mean: Prevalent trial
# Description: Two randomized Phase 3, open-label, sponsor-blind, active-controlled non-inferiority (NI) trials were conducted in anemic DD-CKD patients with incident dialysis and limited ESA exposure (Correction/Conversion trial) and with prevalent dialysis and established ESA treatment (Conversion trial). The primary safety endpoint was prespecified as the time to first major adverse cardiovascular event (MACE) (all-cause mortality, non-fatal MI, or non-fatal stroke) pooled across the two trials. Primary and key secondary efficacy endpoints were mean change in Hb from baseline [BL] to wks 24-36 and to wks 40-52 between two treatment arms, respectively.
# Phase 3, randomized, open-label, active-controlled study of vadadustat vs darbepoetin alfa for the maintenance treatment of anemia after conversion from ESA therapy.
# Following a Screening period of up to 8 weeks (56 days), subjects who met all inclusion and none of the exclusion criteria were randomized 1:1 to vadadustat or darbepoetin alfa.
# Randomization were stratified by: • Geographic region (United States [US] versus European Union [EU] versus Rest of World [ROW]) • New York Heart Association congestive heart failure (CHF) Class 0 (no CHF) or I versus II or III. • Study entry Hb (<10.0 versus ≥10.0 g/dL).
# Following randomization, there were 3 periods during the study: • Conversion and Maintenance Period (Weeks 0 to 52): conversion to study medication for maintaining Hb (Weeks 0-23), primary efficacy evaluation (Weeks 24-36), and secondary efficacy evaluation (Weeks 40-52). • Long-term Treatment Period (Weeks 53 to End of Treatment [EOT]): continued study medication to assess long-term safety. • Follow-up (EOT+4 weeks): post-treatment visit (either in person or via telephone) for safety.
# Inclusion Criteria: • ≥18 years of age. • Receiving chronic maintenance dialysis (either peritoneal or hemodialysis) for end-stage kidney disease for at least 12 weeks prior to Screening. • Currently maintained on ESA therapy, with a dose received within 6 weeks prior to or during Screening. • Mean screening Hb between 8.0 and 11.0 g/dL (inclusive) in the US and between 9.0 and 12.0 g/dL (inclusive) outside of the US, as determined by the average of 2 Hb values measured by the central laboratory during Screening. • Serum ferritin ≥100 ng/mL and transferrin saturation (TSAT) 20% during Screening. • Folate and vitamin B12 measurements lower limit of normal during Screening. • Understands the procedures and requirements of the study and provides written informed consent and authorization for protected health information disclosure.
# Exclusion Criteria: • Anemia due to a cause other than CKD or subjects with active bleeding or recent blood loss. • History of sickle cell disease, myelodysplastic syndromes, bone marrow fibrosis, hematologic malignancy, myeloma, hemolytic anemia, thalassemia, or pure red cell aplasia. • Red blood cell (RBC) transfusion within 8 weeks prior to randomization. • Anticipated to recover adequate kidney function to no longer require dialysis. • Aspartate aminotransferase (AST)/serum glutamic oxaloacetic transaminase (SGOT), alanine aminotransferase (ALT)/serum glutamic pyruvic transaminase (SGPT), or total bilirubin >2.0×upper limit of normal (ULN) during Screening. […]
compound,measurement,setting,value
"O=C(O)CNC(=O)c1ncc(-c2cccc(Cl)c2)cc1O [Compound 1, Vadadustat]","Ferritin, mean",Baseline,846.78 ng/mL
same,"Hepcidin, mean",Baseline,193.86 ng/mL
same,"TSAT, mean",Baseline,38.06%
same,"Ferritin, mean",Weeks 24-36,801.93 ng/mL
same,"Hepcidin, mean",Weeks 24-36,146.95 ng/mL
same,"TSAT, mean",Weeks 24-36,34.77%
same,"Ferritin, mean",Weeks 40-52,787.27 ng/mL
same,"Hepcidin, mean",Weeks 40-52,137.41 ng/mL
same,"TSAT, mean",Weeks 40-52,34.11%
same,proportion of patients requiring RBC transfusions,weeks 24-36,2.0%
same,proportion of patients with an average hemoglobin value within the geography-specific target range,weeks 24-36,49.2%
same,mean (SEM) change from baseline in hemoglobin,weeks 24 to 36,0.19 (0.032) g/dL
same,mean difference between groups (vadadustat vs darbepoetin alfa) in change from baseline in hemoglobin,weeks 24 to 36,−0.17 (0.033) g/dL
same,proportion of patients requiring RBC transfusions,weeks 40-52,3.7%
same,proportion of patients with an average hemoglobin value within the geography-specific target range,weeks 40-52,44.3%
same,mean change from baseline in hemoglobin,weeks 40 to 52,0.23 (0.035) g/dL
same,mean difference between groups (vadadustat vs darbepoetin alfa) in change from baseline in hemoglobin,weeks 40 to 52,−0.18 (0.035) g/dL
